Data taken from article PMC5797744, “Molecular Features Underlying Selectivity in Chicken Bitter Taste Receptors” (Frontiers in Molecular Biosciences, 2018).

Molecular target: T1, ggTas2r2 (Gallus gallus, UniProt A0A1D5PXM6)
T1 construct: gene LOC101747503; transient expression in HEK 293T stably expressing Galpha16gust44; printed residues Gly85, Trp88, Asn92, Tyr180, Leu184, Tyr243, Ser246, Gln250
T1 sequence (A0A1D5PXM6 1-311): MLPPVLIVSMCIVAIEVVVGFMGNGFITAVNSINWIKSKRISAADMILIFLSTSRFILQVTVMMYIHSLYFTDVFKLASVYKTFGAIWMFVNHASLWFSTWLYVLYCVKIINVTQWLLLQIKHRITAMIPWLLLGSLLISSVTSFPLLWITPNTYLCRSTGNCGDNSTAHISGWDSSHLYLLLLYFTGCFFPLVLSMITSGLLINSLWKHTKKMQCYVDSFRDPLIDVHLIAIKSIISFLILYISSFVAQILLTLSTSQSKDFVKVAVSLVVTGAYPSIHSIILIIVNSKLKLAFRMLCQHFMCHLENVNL
Assay: calcium mobilization, Fluo4-AM, FLIPR, dose-response
Type: cell-based
Settings: agonist; HEK 293T with Galpha16gust44; 2.5 mM probenecid at loading

## C=C[C@H]1CN2CC[C@H]1C[C@@H]2[C@H](O)c1ccnc2ccc(OC)cc12 [epiquinidine]
  calcium mobilization, Fluo4-AM, FLIPR, dose-response: Epiquinidine and ethylhydrocupreine can still activate ggTas2r2 and ggTas2r7

## CCOc1ccc2nccc([C@@H](O)[C@@H]3C[C@@H]4CCN3C[C@@H]4CC)c2c1 [ethylhydrocupreine]
  calcium mobilization, Fluo4-AM, FLIPR, dose-response: Epiquinidine and ethylhydrocupreine can still activate ggTas2r2 and ggTas2r7
